Laboratory results as given in patent US10239868B2, “5-hydroxytryptamine receptor 7 activity modulators and their method of use” (TEMPLE UNIVERSITY OF THE COMMONWEALTH SYSTEM OF HIGHER …, priority 2013, dated 2019).

Target: Serotonin 5HT7 receptors (Homo sapiens (Human), UniProt P34969)
Assay: Radiolabel Binding Studies for Serotonin 5HT7 receptors;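 further: displacement of a tritiated radioligand from membranes of stably transfected cells carrying recombinant 5-HT7 receptor, with filter-bound radioactivity measured by scintillation counting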
Conditions: read-out: 5-HT7 % inhib @ 10 uM
Protocol: Radiolabel Binding Studies for Serotonin 5HT7 Receptors, Method 1:
Eleven dilutions (5× assay concentration) of the compound of the disclosure and chlorpromazine are prepared in the Assay Buffer by serial dilution to yield final corresponding assay concentrations ranging from 10 pM to 10 μM.
A stock concentration of 5 nM [^3H]LSD (lysergic acid diethyl amide) is prepared in 50 mM Tris-HCl, 10 mM MgCl2, 1 mM EDTA, pH 7.4 (Assay Buffer). Aliquots (50 μl) of radioligand are dispensed into the wells of a 96-well plate containing 100 μl of Assay Buffer. Duplicate 50-μl aliquots of the compound of the disclosure test and chlorpromazine positive control reference compound serial dilutions are added.
Membrane fractions of cells expressing recombinant 5HT7 receptors (50 μL) are dispensed into each well. The membranes are prepared from stably transfected cell lines expressing 5HT7 receptors cultured on 10-cm plates by harvesting PBS-rinsed monolayers, resuspending and lysing in chilled, hypotonic 50 mM Tris-HCl, pH 7.4, centrifuging at 20,000×g, decanting the supernatant and storing at −80° C.; the membrane preparations are resuspended in 3 ml of chilled Assay Buffer and homogenized by several passages through a 26 gauge needle before using in the assay.
The 250-μl reactions are incubated at room temperature for 1.5 hours, then harvested by rapid filtration onto 0.3% polyethyleneimine-treated, 96-well filter mats using a 96-well Filtermate harvester. Four rapid 500-μl washes are performed with chilled Assay Buffer to reduce non-specific binding. The filter mats are dried, then scintillant is added to the filters and the radioactivity retained on the filters is counted in a Microbeta scintillation counter.
Raw data (dpm) representing total radioligand binding (i.e., specific+non-specific binding) are plotted as a function of the logarithm of the molar concentration of the competitor (i.e., test or reference compound).

Sequence of Serotonin 5HT7 receptors (P34969 whole entry): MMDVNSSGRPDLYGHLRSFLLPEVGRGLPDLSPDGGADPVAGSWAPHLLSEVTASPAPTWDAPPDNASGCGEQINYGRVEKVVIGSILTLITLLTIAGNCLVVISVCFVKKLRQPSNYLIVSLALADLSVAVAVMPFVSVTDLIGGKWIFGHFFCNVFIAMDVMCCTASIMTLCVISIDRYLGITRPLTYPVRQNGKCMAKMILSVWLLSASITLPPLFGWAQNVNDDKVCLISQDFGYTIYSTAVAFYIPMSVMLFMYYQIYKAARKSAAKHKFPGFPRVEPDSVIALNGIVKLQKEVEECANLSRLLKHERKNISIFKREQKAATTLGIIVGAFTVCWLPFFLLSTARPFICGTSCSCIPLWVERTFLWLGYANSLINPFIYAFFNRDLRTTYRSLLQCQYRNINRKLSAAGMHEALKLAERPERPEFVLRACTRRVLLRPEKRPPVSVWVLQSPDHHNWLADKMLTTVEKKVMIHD

inhibition at 10 µM [%]	SMILES
95.9	CCC1(CC)CC(CCN2CCN(c3ccc(O)cc3)CC2)OC1=O (stereo not shown) [Entry 1]
93.3	CCC1(CC)CC(CCN2CCN(c3ccc([N+](=O)[O-])cc3)CC2)OC1=O (stereo not shown) [Entry 2]
88.4	CCC1(CC)CC(CCN2CCN(c3ccc(C#N)cc3)CC2)OC1=O (stereo not shown) [Entry 3]
96.6	CCC1(CC)CC(CCN2CCN(c3ccc(C)cc3)CC2)OC1=O (stereo not shown) [Entry 4]
53.1	CCC1(CC)CC(CCN2CCN(CCc3ccccc3)CC2)OC1=O (stereo not shown) [Entry 5]
99.9	CCC1(CC)CC(CCN2CCN(c3ccccc3O)CC2)OC1=O (stereo not shown) [Entry 6]
94.8	CCC1(CC)CC(CCN2CCN(c3cccc(OC)c3)CC2)OC1=O (stereo not shown) [Entry 7]
93.6	CCC1(CC)CC(CCN2CCN(c3cccc(O)c3)CC2)OC1=O (stereo not shown) [Entry 8]
101	CCC1(CC)CC(CCN2CCN(c3ccccn3)CC2)OC1=O (stereo not shown) [Entry 9]
70.4	CCC1(CC)CC(CCN2CCN(c3c(C)cccc3C)CC2)OC1=O (stereo not shown) [Entry 10]
95.4	CCC1(CC)CC(CCN2CCN(c3ccccc3)CC2)OC1=O (stereo not shown) [Entry 11]
80.9	CCC1(CC)CC(CCN2CCN(c3ccc(N)cc3)CC2)OC1=O (stereo not shown) [Entry 12]
82.5	CCC1(CC)CC(CCN2CCN(C3CCCCC3)CC2)OC1=O (stereo not shown) [Entry 13]
54.3	CCC1(CC)CC(CCN2CCN(c3ccccc3C(C)C)CC2)OC1=O (stereo not shown) [Entry 14]
58.4	CCC1(CC)CC(CCN2CCN(C(c3ccccc3)c3ccccc3)CC2)OC1=O (stereo not shown) [Entry 15]
58.2	CCC1(CC)CC(CCN2CCN(c3ccccc3C)CC2)OC1=O (stereo not shown) [Entry 16]
56.2	CCC1(CC)CC(CCN2CCN(c3ccc(C)cc3C)CC2)OC1=O (stereo not shown) [Entry 17]
82	CCC1(CC)CC(CCN2CCc3ccccc3C2)OC1=O (stereo not shown) [Entry 18]
78.1	COc1ccc(N2CCN(CCC3CC4(CCCCC4)C(=O)O3)CC2)cc1 (stereo not shown) [Entry 20]
86.8	O=C1OC(CCN2CCN(c3cccc(O)c3)CC2)CC12CCCCC2 (stereo not shown) [Entry 21]
98	O=C1OC(CCN2CCN(c3ccccc3)CC2)CC12CCCCC2 (stereo not shown) [Entry 22]
93.7	COc1cccc(N2CCN(CCC3CC4(CCCCC4)C(=O)O3)CC2)c1 (stereo not shown) [Entry 23]
90.7	COc1ccccc1N1CCN(CCC2CC3(CCCCC3)C(=O)O2)CC1 (stereo not shown) [Entry 24]

inhibition at 10 µM [%]	SMILES
93.3	O=C1OC(CCN2CCN(c3ccccc3O)CC2)CC12CCCCC2 (stereo not shown) [Entry 25]
97.4	O=C1OC(CCN2CCN(c3ccccn3)CC2)CC12CCCCC2 (stereo not shown) [Entry 26]
97	O=C1OC(CCN2CCN(c3ccccc3Cl)CC2)CC12CCCCC2 (stereo not shown) [Entry 27]
98	O=C1OC(CCN2CCN(c3ccc(Cl)cc3)CC2)CC12CCCCC2 (stereo not shown) [Entry 28]
96	O=C1OC(CCN2CCN(c3ccc(C(F)(F)F)cc3)CC2)CC12CCCCC2 (stereo not shown) [Entry 29]
46.5	O=C1OC(CCN2CCN(c3ccncc3)CC2)CC12CCCCC2 (stereo not shown) [Entry 30]
54.1	O=C1OC(CCN2CCN(c3ccc(O)cc3)CC2)CC12CCCCC2 (stereo not shown) [Entry 31]
76.3	O=C1OC(CCN2CCN(c3cccnc3)CC2)CC12CCCCC2 (stereo not shown) [Entry 32]
83.4	N#Cc1ccc(N2CCN(CCC3CC4(CCCCC4)C(=O)O3)CC2)cc1 (stereo not shown) [Entry 33]
64.2	N#Cc1ccc(N2CCN(CCC3CC4(CCCCC4)C(=O)O3)CC2)nc1 (stereo not shown) [Entry 34]
91.1	O=C1OC(CCN2CCN(c3ccc(C(F)(F)F)cn3)CC2)CC12CCCCC2 (stereo not shown) [Entry 35]
69	CCC1(CC)CC(CCN2CCC(C(O)(c3ccccc3)c3ccccc3)CC2)OC1=O (stereo not shown) [Entry 37]
96.5	CCC1(CC)CC(CCN2CCC(=C(c3ccccc3)c3ccccc3)CC2)OC1=O (stereo not shown) [Entry 38]
96.1	CC(C)c1ccccc1N1CCN(CCC2CC3(CCCC3)C(=O)O2)CC1 (stereo not shown) [Entry 39]
81.7	CC(C)(C)c1ccccc1N1CCN(CCC2CC3(CCCC3)C(=O)O2)CC1 (stereo not shown) [Entry 40]
25.2	CC(C)c1cccc(C(C)C)c1N1CCN(CCC2CC3(CCCC3)C(=O)O2)CC1 (stereo not shown) [Entry 41]
97.2	O=C1OC(CCN2CCN(c3ccccc3N3CCOCC3)CC2)CC12CCCC2 (stereo not shown) [Entry 42]
95.3	CCC1(CC)CC(CCN2CCN(c3ccccc3OC)CC2)OC1=O (stereo not shown) [Entry 43]
40.8	Cc1ccc(N2CCN(CC3CC(c4ccccc4)(c4ccccc4)C(=O)O3)CC2)cc1 (stereo not shown) [Entry 44]
97.4	Cc1ccc(N2CCN(CCC3CC(c4ccccc4)(c4ccccc4)C(=O)O3)CC2)cc1 (stereo not shown) [Entry 45]
96.8	Cc1ccc(N2CCN(CCCC3CC(c4ccccc4)(c4ccccc4)C(=O)O3)CC2)cc1 (stereo not shown) [Entry 46]
29.3	CCC1(CC)CC(CCN2CCC(c3ccccc3)CC2)OC1=O (stereo not shown) [Entry 47]

SMILES	inhibition at 10 µM [%]
O=C1OC(CCN2CCN(c3ccc(Cl)cn3)CC2)CC12CCCCC2 (stereo not shown) [Entry 36]	96.7
